Assay results from ChEMBL document CHEMBL5042493, “Enhancing monoamine oxidase B inhibitory activity via chiral fluorination: Structure-activity relationship, biological evaluation, and molecular docking study” (Eur J Med Chem, 2022).

What was measured:
[1] = molecular target: T1, Amine oxidase [flavin-containing] A (Homo sapiens, UniProt P21397); test: Inhibition of recombinant human MAO-A expressed in Sf9 cells preincubated for 15 min followed by addition of p-tyramine and measured after 60 min by Luminex assay
T1 sequence (P21397 whole entry): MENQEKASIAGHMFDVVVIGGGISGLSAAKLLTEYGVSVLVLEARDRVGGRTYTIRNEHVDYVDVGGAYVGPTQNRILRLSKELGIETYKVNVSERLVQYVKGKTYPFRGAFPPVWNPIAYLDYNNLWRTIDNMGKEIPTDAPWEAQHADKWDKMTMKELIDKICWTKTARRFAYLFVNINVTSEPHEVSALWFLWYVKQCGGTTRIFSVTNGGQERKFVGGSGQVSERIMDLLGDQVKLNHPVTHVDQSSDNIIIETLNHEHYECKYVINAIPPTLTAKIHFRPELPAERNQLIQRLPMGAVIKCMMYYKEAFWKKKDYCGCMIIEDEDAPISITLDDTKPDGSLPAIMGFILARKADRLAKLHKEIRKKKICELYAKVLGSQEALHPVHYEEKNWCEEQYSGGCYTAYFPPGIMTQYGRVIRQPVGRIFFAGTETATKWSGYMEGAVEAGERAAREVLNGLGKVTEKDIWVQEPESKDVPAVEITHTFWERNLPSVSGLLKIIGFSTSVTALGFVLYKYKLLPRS

Homo sapiens = species: Homo sapiens; test: Selectivity index, ratio of IC50 for recombinant human MAO-A expressed in Sf9 cells to IC50 for recombinant human MAO-B expressed in Sf9 cells
[2] = molecular target: T2, Amine oxidase [flavin-containing] B (Homo sapiens, UniProt P27338); test: Inhibition of recombinant human MAO-B expressed in Sf9 cells preincubated for 15 min followed by addition of benzylamine and measured after 60 min by Luminex assay
T2 sequence (P27338 whole entry): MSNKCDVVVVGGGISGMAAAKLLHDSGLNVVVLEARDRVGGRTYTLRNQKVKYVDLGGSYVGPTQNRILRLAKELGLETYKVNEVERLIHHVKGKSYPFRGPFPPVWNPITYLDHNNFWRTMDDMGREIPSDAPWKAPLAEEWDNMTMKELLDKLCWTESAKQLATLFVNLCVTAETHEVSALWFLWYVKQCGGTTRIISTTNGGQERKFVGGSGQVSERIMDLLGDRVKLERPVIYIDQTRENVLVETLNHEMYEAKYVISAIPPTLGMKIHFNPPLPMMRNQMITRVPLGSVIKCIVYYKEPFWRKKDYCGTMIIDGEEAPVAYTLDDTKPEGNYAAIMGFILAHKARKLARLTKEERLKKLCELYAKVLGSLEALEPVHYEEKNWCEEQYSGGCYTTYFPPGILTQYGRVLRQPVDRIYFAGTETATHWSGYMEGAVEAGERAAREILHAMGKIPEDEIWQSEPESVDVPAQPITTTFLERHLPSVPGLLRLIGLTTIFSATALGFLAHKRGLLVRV

[3] = Toxicity in MPTP-induced C57BL/6 mouse model of Parkinson's disease assessed as effect on locomotor activity by measuring rearing activity at 10 mg/kg, ip pretreated for 15 mins followed by MPTP challenge and measured after 5 days post MPTP challenge; format: organism-based; settings: in vivo, 120 h, time 5 day
[4] = Clearance in Sprague dawley rat at 1 mg/kg, iv measured upto 24 hrs; format: ADME, organism-based; settings: in vivo
[5] = AUC (0-t) in Sprague dawley rat at 1 mg/kg, iv measured upto 24 hrs; format: ADME, organism-based; parameters: route intravenous, dose 1 mg/kg, time <=24; settings: in vivo
[6] = Half life in Cynomolgus monkey rat at 5 mg/kg, po measured upto 24 hrs; format: ADME, organism-based, Macaca fascicularis; settings: in vivo
[7] = Oral bioavailability in Sprague dawley rat at 5 mg/kg measured upto 24 hrs; format: ADME, organism-based; settings: in vivo
[8] = Oral bioavailability in Cynomolgus monkey rat at 5 mg/kg measured upto 24 hrs; format: ADME, organism-based, Macaca fascicularis; settings: in vivo
[9] = Cmax in Cynomolgus monkey rat at 5 mg/kg, po measured upto 24 hrs; format: ADME, organism-based, Macaca fascicularis; parameters: route oral, dose 5 mg/kg, time <=24; settings: in vivo
[10] = Cmax in Sprague dawley rat at 5 mg/kg, po measured upto 24 hrs; format: ADME, organism-based; parameters: route oral, dose 5 mg/kg, time <=24; settings: in vivo
[11] = Cmax in Cynomolgus monkey at 1 mg/kg, iv measured upto 24 hrs; format: ADME, organism-based, Macaca fascicularis; parameters: route intravenous, dose 1 mg/kg, time <=24; settings: in vivo
[12] = Half life in Cynomolgus monkey at 1 mg/kg, iv measured upto 24 hrs; format: ADME, organism-based, Macaca fascicularis; settings: in vivo
[13] = Half life in Sprague dawley rat at 1 mg/kg, iv measured upto 24 hrs; format: ADME, organism-based; settings: in vivo
[14] = Volume of distribution at steady state in Cynomolgus monkey at 1 mg/kg, iv measured upto 24 hrs; format: ADME, organism-based, Macaca fascicularis; settings: in vivo, read-out: Vdss
[15] = AUC (0-t) in Sprague dawley rat at 5 mg/kg, po measured upto 24 hrs; format: ADME, organism-based; parameters: route oral, dose 5 mg/kg, time <=24; settings: in vivo
[16] = Half life in Sprague dawley rat at 5 mg/kg, po measured upto 24 hrs; format: ADME, organism-based; settings: in vivo
[17] = AUC (0-t) in Cynomolgus monkey rat at 5 mg/kg, po measured upto 24 hrs; format: ADME, organism-based, Macaca fascicularis; parameters: route oral, dose 5 mg/kg, time <=24; settings: in vivo
[18] = Volume of distribution at steady state in Sprague dawley rat at 1 mg/kg, iv measured upto 24 hrs; format: ADME, organism-based; settings: in vivo, read-out: Vdss
[19] = AUC (0-t) in Cynomolgus monkey at 1 mg/kg, iv measured upto 24 hrs; format: ADME, organism-based, Macaca fascicularis; parameters: route intravenous, dose 1 mg/kg, time <=24; settings: in vivo, 24 h
[20] = Cmax in Sprague dawley rat at 1 mg/kg, iv measured upto 24 hrs; format: ADME, organism-based; parameters: route intravenous, dose 1 mg/kg, time <=24; settings: in vivo

NC(=O)[C@@H]1C[C@@H](F)CN1Cc1ccc(OCc2cccc(F)c2)cc1F
IC50 [1]: 28.2 µM | Ratio IC50 (Homo sapiens): 13 | IC50 [2]: 2.19 µM

C[C@H](NCc1ccc(OCc2cccc(F)c2)cc1)C(N)=O [SAFINAMIDE]
Activity [3]: Non-Toxic | clearance [4]: 65.5 mL/min/kg | AUC(0-t) at 24 h [5]: 253 ng·h/mL | half-life [6]: 4.6 h | bioavailability [7]: 63.2% | bioavailability [8]: 111% | Cmax [9]: 1970 ng/mL | Cmax [10]: 423 ng/mL | Cmax [11]: 1080 ng/mL | half-life [12]: 2.74 h | half-life [13]: 1.03 h | Vd [14]: 7.15 L/kg | AUC(0-t) at 24 h [15]: 795 ng·h/mL | half-life [16]: 1.02 h | AUC(0-t) at 24 h [17]: 13100 ng·h/mL | Vd [18]: 4.21 L/kg | AUCt [19]: 2120 ng·h/mL | Cmax [20]: 282 ng/mL

Cc1cc(OCc2cccc(F)c2)ccc1CN1C[C@H](F)C[C@H]1C(N)=O
IC50 [2]: > 10 µM

NC(=O)[C@@H]1C[C@H](F)CN1Cc1ccc(OCc2cccc(F)c2)cc1F
IC50 [1]: 29.4 µM | Ratio IC50 (Homo sapiens): 979

NC(=O)[C@@H]1C[C@H](O)CN1Cc1ccc(OCc2cccc(F)c2)cc1
IC50 [1]: 84.5 µM | Ratio IC50 (Homo sapiens): 196 | IC50 [2]: 0.431 µM

Cc1cc(OCc2cccc(F)c2)ccc1CN1C[C@@H](F)C[C@H]1C(N)=O
IC50 [1]: 20.5 µM | Ratio IC50 (Homo sapiens): 25 | IC50 [2]: 0.82 µM

C[C@H]1C[C@@H](C(N)=O)N(Cc2ccc(OCc3cccc(F)c3)cc2)C1
clearance [4]: 79.1 mL/min/kg | IC50 [1]: 27.5 µM | AUC(0-t) at 24 h [5]: 209 ng·h/mL | bioavailability [7]: 16.9% | Cmax [10]: 69.1 ng/mL | half-life [13]: 0.73 h | AUC(0-t) at 24 h [15]: 176 ng·h/mL | half-life [16]: 0.96 h | Vd [18]: 4.56 L/kg | Ratio IC50 (Homo sapiens): 335 | Cmax [20]: 174 ng/mL | IC50 [2]: 0.082 µM

NC(=O)[C@@H]1C[C@@H](F)CN1Cc1ccc(OCc2cccc(F)c2)cc1
IC50 [1]: 24 µM | Ratio IC50 (Homo sapiens): 31 | IC50 [2]: 0.772 µM

NC(=O)[C@H]1C[C@H](F)CN1Cc1ccc(OCc2cccc(F)c2)cc1
IC50 [1]: 6.74 µM | Ratio IC50 (Homo sapiens): 10 | IC50 [2]: 0.709 µM

C[C@@H]1C[C@@H](C(N)=O)N(Cc2ccc(OCc3cccc(F)c3)cc2)C1
IC50 [1]: 42.2 µM | Ratio IC50 (Homo sapiens): 19 | IC50 [2]: 2.18 µM

NC(=O)[C@@H]1C[C@H](F)CN1Cc1ccc(OCc2cccc(F)c2)cc1Cl
IC50 [1]: 5.18 µM | Ratio IC50 (Homo sapiens): 37 | IC50 [2]: 0.14 µM

NC(=O)[C@@H]1C[C@@H](F)CN1Cc1ccc(OCc2cccc(F)c2)cc1Cl
IC50 [2]: > 10 µM

NC(=O)[C@@H]1C[C@@H](O)CN1Cc1ccc(OCc2cccc(F)c2)cc1
IC50 [2]: > 10 µM

NC(=O)[C@H]1C[C@@H](F)CN1Cc1ccc(OCc2cccc(F)c2)cc1
IC50 [2]: > 10 µM

NC(=O)[C@@H]1CCCN1Cc1ccc(OCc2cccc(F)c2)cc1
clearance [4]: 47.1 mL/min/kg | AUC(0-t) at 24 h [5]: 347 ng·h/mL | bioavailability [7]: 16.3% | Cmax [10]: 163 ng/mL | half-life [13]: 0.37 h | AUC(0-t) at 24 h [15]: 284 ng·h/mL | half-life [16]: 1.27 h | Vd [18]: 1.11 L/kg | Ratio IC50 (Homo sapiens): 168 | Cmax [20]: 809 ng/mL
